Test results as given in ChEMBL document CHEMBL5385941, “Synthesis and biological evaluation of hydantoin derivatives as potent antiplasmodial agents” (Bioorg Med Chem Lett, 2024).

Assays:
[1] = Cytotoxicity against human MRC5 cells assessed as cell viability at 3.125 to 100 uM measured after 24 hrs by MTT assay relative to control; assay type: toxicity, cell-based; conditions: dose 3.125-100 µM, read-out: Activity
[2] = Cytotoxicity against human MRC5 cells assessed as cell growth inhibition measured after 24 hrs by MTT assay; assay type: toxicity, cell-based
[3] = tested on: Plasmodium falciparum; experiment: Antiplasmodial activity against Plasmodium falciparum 3D7 trophozoites assessed as parasite growth inhibition; assay type: functional, organism-based

Row | SMILES | viability at 24 h, up to 100 µM [1] [%] | IC50 at 24 h [2] [µM] | IC50 [3] [µM]
1 | C[C@H]1NC(=O)NC1=O | > 80 | > 100 | 916
2 | O=C1NC(=O)[C@@H](c2ccccc2)N1 | > 80 | > 100 | > 1000
3 | CSCC[C@H]1NC(=O)NC1=O | > 80 | > 100 | > 1000
4 | Cc1ccc(S(=O)(=O)N2C(=O)CNC2=O)cc1 | > 80 | > 100 | 0.00397
5 | CC(C)C(=O)N1C(=O)N[C@H](c2ccccc2)C1=O | > 80 | > 100 | 27.5
6 | O=C1CNC(=O)N1C(=O)c1cc([N+](=O)[O-])cc([N+](=O)[O-])c1 | > 80 | > 100 | 625
7 | CC(C)C(=O)N1C(=O)CNC1=O | > 80 | > 100 | > 1000
8 | O=C1CNC(=O)N1C(=O)Cc1ccccc1 | > 80 | > 100 | 748
9 | CC(=O)N1C(=O)CNC1=O | > 80 | > 100 | 147
10 | O=C1CNC(=O)N1 [HYDANTOIN] | > 80 | > 100 | 623
